This passage reports MIC results from patent US20230114728A1 (Venatorx Pharmaceuticals, Inc., priority 2019, published 2023).

What all share (test): Liquid broth MIC in Fastidious broth
Format in all cases: cell-based

Experiment [1] relates to N. gonorrhoeae FA1090. The settings on record: Neisseria gonorrhoeae; N. gonorrhoeae strain FA1090; Fastidious broth; read-out: Minimum Inhibitory Concentration, N. gonorrhoeae FA1090. Put shortly:
(§1)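 Colonies were swabbed from chocolate agar after 24 h growth and standardised by optical density at 600 nm. Compounds were serially diluted twofold in Fastidious broth, and bacteria added to give 5×10^5 CFU/mL. After about 24 h at 36 °C in 5% CO2, the lowest concentration allowing under 10% growth was taken as MIC.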

Experiment [2] has as its system N. gonorrhoeae WHO K. Conditions: Neisseria gonorrhoeae, read-out: Minimum Inhibitory Concentration, N. gonorrhoeae WHO K. Put shortly: (§2)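 MIC = lowest concentration giving <10% growth relative to untreated wells, scored by eye after ~24 h at 36 °C, 5% CO2. Strains carry mosaic PBP2; inoculum 5×10^5 CFU/mL in Fastidious broth with 2-fold serial compound dilutions.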

Experiment [3] has as its system N. gonorrhoeae WHO G. Conditions: Neisseria gonorrhoeae; N. gonorrhoeae strain WHO G; Fastidious broth; read-out: Minimum Inhibitory Concentration, N. gonorrhoeae WHO G. An outline of the steps: as §1
Experiment [4] concerns N. gonorrhoeae WHO L. Conditions: Neisseria gonorrhoeae; N. gonorrhoeae strain WHO L; Fastidious broth; read-out: Minimum Inhibitory Concentration, N. gonorrhoeae WHO L. An outline of the steps:
as §1

Experiment [5] relates to N. gonorrhoeae WHO Q. The settings on record: Neisseria gonorrhoeae, read-out: Minimum Inhibitory Concentration, N. gonorrhoeae WHO Q. Put shortly:
as §2

Experiment [6] relates to N. gonorrhoeae ATCC 49226. The settings on record: Neisseria gonorrhoeae, ATCC49226; N. gonorrhoeae strain ATCC 49226; Fastidious broth; read-out: Minimum Inhibitory Concentration, N. gonorrhoeae ATCC 49226. Put shortly: as §1
The test system of experiment [7] is N. gonorrhoeae H041. Conditions: Neisseria gonorrhoeae, H041, read-out: Minimum Inhibitory Concentration, N. gonorrhoeae H041. An outline of the steps:
as §2

Experiment [8] concerns N. gonorrhoeae WHO Z. The settings on record: Neisseria gonorrhoeae, read-out: Minimum Inhibitory Concentration, N. gonorrhoeae WHO Z. Put shortly:
as §2

In brackets after ≈: the same amount, converted by molar mass.

As for `NC(=O)c1ccc(C(NC(=O)N2CCN(CCF)C(=O)C2=O)C(=O)N[C@H]2Cc3cccc(C(=O)O)c3OB2O)cc1O` (stereo partly drawn) [Example 46, (3R)-3-(2-(4-carbamoyl-3-hydroxyphenyl)-2-(4-(2-fluoroethyl)-2,3-dioxopiperazine-1-carboxamido)acetamido)-2-hydroxy-3,4-dihydro-2H-benzo[e][1,2]oxaborinine-8-carboxylic acid], the MIC is under 0.125 µg/mL in experiment [1]; 16 to 32 µg/mL (≈ 27.3 to 54.7 µM) in experiment [2]; 0.25 to 0.5 µg/mL (≈ 0.427 to 0.854 µM) in experiment [3]; 16 to 32 µg/mL (≈ 27.3 to 54.7 µM) in experiment [4]; 16 to 32 µg/mL (≈ 27.3 to 54.7 µM) in experiment [5]; 1 to 2 µg/mL (≈ 1.71 to 3.42 µM) in experiment [6]. In addition, the MIC in experiment [7] and in experiment [8] was 16 to 32 µg/mL (≈ 27.3 to 54.7 µM) throughout.
`NCCCN1CCN(C(=O)NC(C(=O)N[C@H]2Cc3cccc(C(=O)O)c3OB2O)c2ccc(C(N)=O)c(O)c2)C(=O)C1=O` (stereo partly drawn) [Example 47, (3R)-3-(2-(4-(3-aminopropyl)-2,3-dioxopiperazine-1-carboxamido)-2-(4-carbamoyl-3-hydroxyphenyl)acetamido)-2-hydroxy-3,4-dihydro-2H-benzo[e][1,2]oxaborinine-8-carboxylic acid]: the MIC in experiment [1] is 0.25 to 0.5 µg/mL (≈ 0.419 to 0.838 µM); in experiment [2], over 64 µg/mL; in experiment [3], 4 to 8 µg/mL (≈ 6.71 to 13.4 µM); in experiment [4] it was over 64 µg/mL; in experiment [5], over 64 µg/mL; in experiment [6] it was 4 to 8 µg/mL (≈ 6.71 to 13.4 µM). Moreover, the MIC in experiment [7] and in experiment [8] was over 64 µg/mL throughout.
As to `CCN1CCN(C(=O)NC(C(=O)N[C@H]2Cc3cccc(C(=O)O)c3OB2O)c2ccc(C(=O)O)c(OC)c2)C(=O)C1=O` (stereo partly drawn) [Example 48, (3R)-3-(2-(4-carboxy-3-methoxyphenyl)-2-(4-ethyl-2,3-dioxopiperazine-1-carboxamido)acetamido)-2-hydroxy-3,4-dihydro-2H-benzo[e][1,2]oxaborinine-8-carboxylic acid], the MIC in experiment [1] was in the range of 0.25 to 0.5 µg/mL (≈ 0.429 to 0.859 µM); in experiment [2], 4 to 8 µg/mL (≈ 6.87 to 13.7 µM); in experiment [3], 1 to 2 µg/mL (≈ 1.72 to 3.43 µM); in experiment [4], 16 to 32 µg/mL (≈ 27.5 to 55 µM); in experiment [5] it was 4 to 8 µg/mL (≈ 6.87 to 13.7 µM); in experiment [6] it was 4 to 8 µg/mL (≈ 6.87 to 13.7 µM). In addition, the MIC in experiment [7] fell in the range of 16 to 32 µg/mL (≈ 27.5 to 55 µM); in experiment [8] it was 1 to 2 µg/mL (≈ 1.72 to 3.43 µM).
In the case of `O=C(NC(C(=O)N[C@H]1Cc2ccc(F)c(C(=O)O)c2OB1O)c1ncc(O)cc1F)c1ccnc(F)c1` (stereo partly drawn) [Example 53, (3R)-7-fluoro-3-(2-(3-fluoro-5-hydroxypyridin-2-yl)-2-(2-fluoroisonicotinamido)acetamido)-2-hydroxy-3,4-dihydro-2H-benzo[e][1,2]oxaborinine-8-carboxylic acid], the MIC was 4 to 8 µg/mL (≈ 7.75 to 15.5 µM) in experiment [1]; over 64 µg/mL in experiment [2]; over 64 µg/mL in experiment [3]; over 64 µg/mL in experiment [4]; over 64 µg/mL in experiment [5]; over 64 µg/mL in experiment [6]. The MIC in experiment [7] and in experiment [8] was over 64 µg/mL in each case.
For `CCN1CCN(C(=O)NC(C(=O)N[C@H]2Cc3ccc(C=O)c(C(=O)O)c3OB2O)c2csc(N)n2)C(=O)C1=O` (stereo partly drawn) [Example 57, (3R)-3-(2-(2-aminothiazol-4-yl)-2-(4-ethyl-2,3-dioxopiperazine-1-carboxamido)acetamido)-7-formyl-2-hydroxy-3,4-dihydro-2H-benzo[e][1,2]oxaborinine-8-carboxylic acid], the MIC is 4 to 8 µg/mL (≈ 7.16 to 14.3 µM) in experiment [1]; over 64 µg/mL in experiment [2]; 16 to 32 µg/mL (≈ 28.7 to 57.3 µM) in experiment [3]; over 64 µg/mL in experiment [4]; over 64 µg/mL in experiment [5]; 16 to 32 µg/mL (≈ 28.7 to 57.3 µM) in experiment [6]. The MIC in experiment [7] and in experiment [8] was over 64 µg/mL each time.
Consider `CCN1CCN(C(=O)NC(C(=O)N[C@H]2Cc3ccc(CO)c(C(=O)O)c3OB2O)c2csc(N)n2)C(O)C1=O` (stereo partly drawn) [Example 58, (3R)-3-(2-(2-aminothiazol-4-yl)-2-(4-ethyl-2-hydroxy-3-oxopiperazine-1-carboxamido)acetamido)-2-hydroxy-7-(hydroxymethyl)-3,4-dihydro-2H-benzo[el][1,2]oxaborinine-8-carboxylic acid], for which the MIC in experiment [1], in experiment [2], in experiment [3], in experiment [4], in experiment [5] and in experiment [6] was over 64 µg/mL throughout. Also, the MIC in experiment [7] and in experiment [8] was over 64 µg/mL in each case.
`CCN1CCN(C(=O)NC(C(=O)N[C@H]2Cc3ccc(O[C@@H]4CN[C@H](C(=O)N(C)C)C4)c(C(=O)O)c3OB2O)c2ccccc2)C(=O)C1=O` (stereo partly drawn) [Example 59, (3R)-7-(((3S,5S)-5-(dimethylcarbamoyl)pyrrolidin-3-yl)oxy)-3-(2-(4-ethyl-2,3-dioxopiperazine-1-carboxamido)-2-phenylacetamido)-2-hydroxy-3,4-dihydro-2H-benzo[e][1,2]oxaborinine-8-carboxylic acid]: the MIC was 4 to 8 µg/mL (≈ 6.02 to 12 µM) in experiment [1]; over 64 µg/mL in experiment [2]; over 64 µg/mL in experiment [3]; over 64 µg/mL in experiment [4]; over 64 µg/mL in experiment [5]; over 64 µg/mL in experiment [6]. For the same compound, the MIC in experiment [7] and in experiment [8] was over 64 µg/mL in each case.
In the case of `CCN1CCN(C(=O)NC(C(=O)N[C@H]2Cc3ccc(OCCN)c(C(=O)O)c3OB2O)c2ccccc2)C(=O)C1=O` (stereo partly drawn) [Example 60, (3R)-7-(2-aminoethoxy)-3-(2-(4-ethyl-2,3-dioxopiperazine-1-carboxamido)-2-phenylacetamido)-2-hydroxy-3,4-dihydro-2H-benzo[e][1,2]oxaborinine-8-carboxylic acid], the MIC in experiment [1] is 16 to 32 µg/mL (≈ 28.2 to 56.4 µM); in experiment [2] it was over 64 µg/mL; in experiment [3], over 64 µg/mL; in experiment [4] it was over 64 µg/mL; in experiment [5] it was over 64 µg/mL; in experiment [6] it was over 64 µg/mL. Also, the MIC in experiment [7] and in experiment [8] was over 64 µg/mL throughout.
In the case of `CCN1CCN(C(=O)NC(C(=O)N[C@H]2Cc3cccc(C(=O)O)c3OB2O)c2cccc(O)c2)C(=O)C1=O` (stereo partly drawn) [Example 68, (3R)-3-(2-(4-ethyl-2,3-dioxopiperazine-1-carboxamido)-2-(3-hydroxyphenyl)acetamido)-2-hydroxy-3,4-dihydro-2H-benzo[e][1,2]oxaborinine-8-carboxylic acid], the MIC in experiment [1] is 0.25 to 0.5 µg/mL (≈ 0.477 to 0.954 µM); in experiment [2] it was 16 to 32 µg/mL (≈ 30.5 to 61 µM); in experiment [3], 4 to 8 µg/mL (≈ 7.63 to 15.3 µM); in experiment [4], 16 to 32 µg/mL (≈ 30.5 to 61 µM); in experiment [5], over 64 µg/mL; in experiment [6], 4 to 8 µg/mL (≈ 7.63 to 15.3 µM). The MIC in experiment [7] and in experiment [8] was 16 to 32 µg/mL (≈ 30.5 to 61 µM) throughout.
As for `CCN1CCN(C(=O)NC(C(=O)N[C@H]2Cc3cccc(C(=O)O)c3OB2O)c2ccc(O)cc2O)C(=O)C1=O` (stereo partly drawn) [Example 69, (3R)-3-(2-(2,4-dihydroxyphenyl)-2-(4-ethyl-2,3-dioxopiperazine-1-carboxamido)acetamido)-2-hydroxy-3,4-dihydro-2H-benzo[e][1,2]oxaborinine-8-carboxylic acid], the MIC in experiment [1] is 0.25 to 0.5 µg/mL (≈ 0.463 to 0.925 µM); in experiment [2], over 64 µg/mL; in experiment [3], 4 to 8 µg/mL (≈ 7.4 to 14.8 µM); in experiment [4] it was 16 to 32 µg/mL (≈ 29.6 to 59.2 µM); in experiment [5] it was over 64 µg/mL; in experiment [6], 4 to 8 µg/mL (≈ 7.4 to 14.8 µM). Further, the MIC is over 64 µg/mL in experiment [7] and 16 to 32 µg/mL (≈ 29.6 to 59.2 µM) in experiment [8].
As to `CCN1CCN(C(=O)NC(C(=O)N[C@H]2Cc3cccc(C(=O)O)c3OB2O)c2ccc(O)cc2OC)C(=O)C1=O` (stereo partly drawn) [Example 70, (3R)-3-(2-(4-ethyl-2,3-dioxopiperazine-1-carboxamido)-2-(4-hydroxy-2-methoxyphenyl)acetamido)-2-hydroxy-3,4-dihydro-2H-benzo[e][1,2]oxaborinine-8-carboxylic acid], the MIC is 1 to 2 µg/mL (≈ 1.8 to 3.61 µM) in experiment [1]; over 64 µg/mL in experiment [2]; 16 to 32 µg/mL (≈ 28.9 to 57.7 µM) in experiment [3]; over 64 µg/mL in experiment [4]; over 64 µg/mL in experiment [5]; 16 to 32 µg/mL (≈ 28.9 to 57.7 µM) in experiment [6]. Further, the MIC in experiment [7] and in experiment [8] was over 64 µg/mL throughout.
Take `CCN1CCN(C(=O)NC(C(=O)N[C@H]2Cc3cccc(C(=O)O)c3OB2O)c2cccc(N)c2)C(=O)C1=O` (stereo partly drawn) [Example 72, (3R)-3-(2-(3-aminophenyl)-2-(4-ethyl-2,3-dioxopiperazine-1-carboxamido)acetamido)-2-hydroxy-3,4-dihydro-2H-benzo[e][1,2]oxaborinine-8-carboxylic acid]: the MIC in experiment [1] is 0.25 to 0.5 µg/mL (≈ 0.478 to 0.955 µM); in experiment [2] it was over 64 µg/mL; in experiment [3], 1 to 2 µg/mL (≈ 1.91 to 3.82 µM); in experiment [4], over 64 µg/mL; in experiment [5], 16 to 32 µg/mL (≈ 30.6 to 61.1 µM); in experiment [6] it was 4 to 8 µg/mL (≈ 7.64 to 15.3 µM). The values for the MIC in experiment [7] and in experiment [8] were over 64 µg/mL and 16 to 32 µg/mL (≈ 30.6 to 61.1 µM), respectively.
